Test results published in ChEMBL document CHEMBL1128039, “Acyl CoA:cholesterol acyltransferase (ACAT) inhibitors: ureas bearing two heterocyclic head groups” (Bioorg Med Chem Lett, 1995).

Tested on: Cricetinae gen. sp.
Assay: In vivo activity, with an ED50 inlowering cholesterol levels in the cholesterol-fed hamster
Assay type: functional, Cricetulus griseus

Which ED50 does the source give for CCCCCCCN(CCCCCSc1nc(-c2ccccc2)c(-c2ccccc2)[nH]1)C(=O)Nc1ccc(F)cc1F [LECIMIBIDE] here?
The ED50 was 3 mg/kg.
